According to patent publication US6211244A, “Calcium receptor-active compounds” (priority 1995, dated 2001):
Like-named read-outs stand apart in the source and are kept apart here.

Biological target: T1, human calcium receptor (Homo sapiens, UniProt P41180, R990G)
T1 construct: expressed in transfected cells; host or cells: HEK 293
T1 sequence (P41180 20-1078 R990G): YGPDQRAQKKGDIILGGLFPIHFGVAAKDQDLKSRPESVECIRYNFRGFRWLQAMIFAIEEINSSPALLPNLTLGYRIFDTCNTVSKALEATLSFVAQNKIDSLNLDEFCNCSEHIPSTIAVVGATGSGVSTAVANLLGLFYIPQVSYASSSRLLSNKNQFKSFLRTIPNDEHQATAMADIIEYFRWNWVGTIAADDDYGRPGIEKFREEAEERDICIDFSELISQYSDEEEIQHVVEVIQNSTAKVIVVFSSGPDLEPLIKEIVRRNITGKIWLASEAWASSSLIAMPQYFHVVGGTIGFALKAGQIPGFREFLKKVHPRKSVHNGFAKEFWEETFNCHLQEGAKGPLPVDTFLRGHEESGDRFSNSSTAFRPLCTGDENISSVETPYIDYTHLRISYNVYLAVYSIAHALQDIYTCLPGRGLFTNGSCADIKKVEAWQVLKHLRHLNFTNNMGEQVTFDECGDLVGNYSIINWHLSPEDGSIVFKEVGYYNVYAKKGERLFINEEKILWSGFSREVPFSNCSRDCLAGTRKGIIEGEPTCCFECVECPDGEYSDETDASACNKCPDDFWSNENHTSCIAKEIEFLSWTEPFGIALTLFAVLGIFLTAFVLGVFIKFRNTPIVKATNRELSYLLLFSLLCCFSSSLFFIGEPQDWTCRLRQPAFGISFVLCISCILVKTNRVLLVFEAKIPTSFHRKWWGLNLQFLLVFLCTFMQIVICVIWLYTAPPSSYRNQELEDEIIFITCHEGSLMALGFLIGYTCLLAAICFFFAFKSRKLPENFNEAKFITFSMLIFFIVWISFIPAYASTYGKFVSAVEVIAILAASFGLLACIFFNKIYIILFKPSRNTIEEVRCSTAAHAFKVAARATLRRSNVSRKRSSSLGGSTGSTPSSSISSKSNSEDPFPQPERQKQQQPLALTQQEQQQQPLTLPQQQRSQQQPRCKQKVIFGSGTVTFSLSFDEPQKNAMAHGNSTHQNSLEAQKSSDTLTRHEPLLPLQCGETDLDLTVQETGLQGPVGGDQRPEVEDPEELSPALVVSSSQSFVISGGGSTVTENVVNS
Experiment: increases in [Ca^2+ ]i in HEK-293 cells expressing the human calcium receptor (fura-2 loaded HEK 293/pHuPCaR4.0 cells), % activity
Type: cell-based
Conditions: for activity at […]: HEK293

Compound	% activity (33 ng/mL) [%]	% activity (330 ng/mL) [%]	% activity (3300 ng/mL) [%]	% activity	activity at […] (33 ng/mL) [%]	activity at […] (330 ng/mL) [%]
COc1cccc(C(C)NCc2ccc3ccccc3c2)c1 (centres unmarked) [Compound 10P]	74	102	–	–	–	–
CC(NC(C)c1cccc2ccccc12)c1ccc2c(c1)-c1ccccc1-2 (centres unmarked) [Compound 10Q]	84	100	103	–	–	–
CC(NC(C)c1cccc2ccccc12)c1ccc2c(c1)-c1ccccc1-2 (centres unmarked) [Compound 10R]	42	82	–	–	–	–
CC(NC1CC1c1ccccc1)c1cccc2ccccc12 (centres unmarked) [Compound 10V]	62	99	–	–	–	–
C=CCOc1cccc([C@@H](C)NCc2ccc3ccccc3c2)c1 [Compound 10Z]	51	96	–	–	–	–
CCOC(=O)COc1cccc([C@@H](C)NCc2ccc3ccccc3c2)c1 [Compound 11D]	50	96	–	–	–	–
COc1cccc([C@@H](C)NCc2cccc(OCc3ccccc3)c2)c1 [Compound 11W]	44	81	–	–	–	–
CC(C)c1ccc(CN[C@H](C)c2cccc3ccccc23)cc1.Cl [Compound 11X, N-(4-Isopropylbenzyl)-(R)-1-(1-naphthyl)ethylamine hydrochloride]	76	100	–	–	–	–
COc1cccc([C@@H](C)NCc2ccc(C(C)C)cc2)c1 [Compound 11Y]	61	103	–	–	–	–
COc1cccc([C@@H](C)NCC=Cc2ccc(C)cc2)c1 [Compound 12B, (R)-N-[3-(4-methylphenyl)prop-2-enyl]-1-(3-methoxyphenyl)ethylamine]	56	110	130	–	–	–
COc1cccc([C@@H](C)NCC=Cc2ccccc2C)c1 [Compound 12C, (R)-N-[3-(2-methylphenyl)prop-2-enyl]-1-(3-methoxyphenyl)ethylamine]	98	125	134	–	–	–
COc1cccc([C@@H](C)NCC=Cc2c(C)cc(C)cc2C)c1 [Compound 12D, (R)-N-[3-(2,4,6-trimethylphenyl)prop-2-enyl]-1-(3-methoxyphenyl)ethylamine]	52	109	128	–	–	–
COc1cccc([C@@H](C)NCC=Cc2ccc(C(C)C)cc2)c1 [Compound 12E, (R)-N-[3-(4-isopropylphenyl)prop-2-enyl]-1-(3-methoxyphenyl)ethylamine]	73	121	117	–	–	–
COc1cccc([C@@H](C)NCC=Cc2ccc(C)cc2C)c1 [Compound 12F, (R)-N-[3-(2,4-dimethylphenyl)prop-2-enyl]-1-(3-methoxyphenyl)ethylamine]	101	110	118	–	–	–
COc1cccc([C@@H](C)NCC=Cc2cccc(C)c2)c1 [Compound 12G, (R)-N-[3-(3-methylphenyl)prop-2-enyl]-1-(3-methoxyphenyl)ethylamine]	81	139	139	–	–	–
COc1cccc([C@@H](C)NCc2cccc(Oc3ccccc3)c2)c1 [Compound 12H]	94	115	114	–	–	–
C[C@@H](NCc1ccc(OCc2ccccc2)cc1)c1cccc2ccccc12 [Compound 12I]	93	111	115	–	–	–
CC(NCc1cccc(OCc2ccccc2)c1)c1cccc2ccccc12 (centres unmarked) [Compound 12J]	113	130	131	–	–	–
C[C@@H](NCc1ccccc1)c1cccc2ccccc12 [Compound 12L]	–	88	–	45	–	–
COc1cccc(C(C)NCc2ccc(C=Cc3ccccc3)cc2)c1 (centres unmarked) [Compound 12M]	56	86	98	–	–	–
C[C@@H](NCc1ccc(C(C)(C)c2ccccc2)cc1)c1cccc2ccccc12 [Compound 12N]	102	106	115	–	–	–
COc1cccc([C@@H](C)NCc2ccc(C(C)(C)c3ccccc3)cc2)c1 [Compound 12O]	94	117	110	–	–	–
COc1cccc([C@@H](C)NCCCc2ccc(C(C)C)cc2)c1 [Compound 12Y]	46	80	–	–	–	–
CC(NC(C)c1ccc(C(C)(C)C)cc1)c1ccccc1 (centres unmarked) [Compound 13E]	40	94	123	–	–	–
CC(N[C@H](C)c1ccc2ccccc2c1)c1ccc(C(C)(C)C)cc1 (some centres unmarked) [Compound 13F]	85	122	125	–	–	–

Compound	% activity (33 ng/mL) [%]	% activity (330 ng/mL) [%]	% activity (3300 ng/mL) [%]	% activity	activity at […] (33 ng/mL) [%]	activity at […] (330 ng/mL) [%]
C[C@@H](NCc1cccc(Cl)c1)c1cccc2ccccc12 [Compound 13M]	66	92	–	–	–	–
CCc1ccc(CN[C@H](C)c2cccc3ccccc23)cc1 [Compound 13N]	88	114	–	–	–	–
C[C@@H](NCc1ccc(Cl)cc1)c1cccc2ccccc12 [Compound 13O]	94	115	–	–	–	–
Cc1ccc(CN[C@H](C)c2cccc3ccccc23)cc1 [Compound 13P]	83	110	–	–	–	–
C[C@@H](NCc1ccc(Cl)c(Cl)c1)c1cccc2ccccc12 [Compound 13R]	98	132	–	–	–	–
C[C@@H](NCc1ccc(F)cc1)c1cccc2ccccc12 [Compound 13T]	53	90	–	–	–	–
COc1ccc(CN[C@H](C)c2cccc3ccccc23)cc1 [Compound 13U]	79	108	–	–	–	–
C[C@@H](NCc1ccc(N(C)C)cc1)c1cccc2ccccc12 [Compound 13V]	79	110	–	–	–	–
C[C@@H](NCc1ccc([N+](=O)[O-])cc1)c1cccc2ccccc12 [Compound 13W]	71	109	–	–	–	–
COc1cccc([C@@H](C)NC[C@@H](C)c2ccc(CC(C)C)cc2)c1 [Compound 13Y]	2	47	106	–	–	–
CC(C)Cc1ccc(C(C)CNC(C)c2cccc3ccccc23)cc1 (centres unmarked) [Compound 13Z]	22	54	93	–	–	–
Cc1ccc(CNC(C)c2ccc(C(C)(C)C)cc2)cc1 (centres unmarked) [Compound 14B]	11	55	75	–	–	–
CC(NCCc1ccccc1)c1ccc(C(C)(C)C)cc1 (centres unmarked) [Compound 14H]	5	49	112	–	–	–
CCN(CCCc1ccccc1)C(C)c1ccc(C(C)(C)C)cc1 (centres unmarked) [Compound 14I]	11	–	80	45	–	–
CC(c1ccc(C(C)(C)C)cc1)N(C)CCCc1ccccc1 (centres unmarked) [Compound 14J]	6	41	55	–	–	–
CC(C)c1ccc([C@@H](C)N[C@H](C)c2cccc3ccccc23)cc1 [Compound 14L]	–	–	–	–	78	109
C[C@@H](NCCc1ccccc1)c1cccc2ccccc12 [Compound 14N]	55	89	–	–	–	–
C[C@@H](N[C@H](C)c1cccc2ccccc12)c1ccccc1 [Compound 14O]	102	119	119	–	–	–
CC(NC(C)c1cccc2ccccc12)c1ccccc1 (centres unmarked) [Compound 14P]	78	103	112	–	–	–
C[C@@H](N[C@H](C)c1cccc2ccccc12)c1cccc(Cl)c1 [Compound 14Q]	78	101	–	–	–	–
CC(NC(C)c1cccc2ccccc12)c1ccc(Cl)cc1 (centres unmarked) [Compound 14S]	105	106	116	–	–	–
COc1cccc(C(C)NC(C)c2cccc3ccccc23)c1 (centres unmarked) [Compound 14Z]	82	103	118	–	–	–
COc1cccc(CCNC(C)c2cccc3ccccc23)c1 (centres unmarked) [Compound 15I]	75	93	111	–	–	–
COc1ccc(CCNC(C)c2cccc3ccccc23)cc1 (centres unmarked) [Compound 15J]	64	75	80	–	–	–
